Laboratory results: patent publication US12479847B2 (DANA-FARBER CANCER INSTITUTE, INC., priority 2019, dated 2025)
Where two headings read alike, the source gives them in different places.

Experiments:
Experiment in all cases: KINOMEscan (ScanMAX) kinase profiling
Assay type in all cases: binding
[1] = molecular target: T1, panel of 468 kinases (Homo sapiens, UniProt P00519, Y253F); settings: ABL1(Y253F)-phosphorylated; 1 μM; read-out: % control
T1 construct: purchased KINOMEscan (ScanMAX) service

[2] = molecular target: T2, panel of 468 kinases (Homo sapiens, UniProt P07948); settings: LYN; 1 μM; read-out: % control
T2 construct: purchased KINOMEscan (ScanMAX) service
T2 sequence (P07948 whole entry): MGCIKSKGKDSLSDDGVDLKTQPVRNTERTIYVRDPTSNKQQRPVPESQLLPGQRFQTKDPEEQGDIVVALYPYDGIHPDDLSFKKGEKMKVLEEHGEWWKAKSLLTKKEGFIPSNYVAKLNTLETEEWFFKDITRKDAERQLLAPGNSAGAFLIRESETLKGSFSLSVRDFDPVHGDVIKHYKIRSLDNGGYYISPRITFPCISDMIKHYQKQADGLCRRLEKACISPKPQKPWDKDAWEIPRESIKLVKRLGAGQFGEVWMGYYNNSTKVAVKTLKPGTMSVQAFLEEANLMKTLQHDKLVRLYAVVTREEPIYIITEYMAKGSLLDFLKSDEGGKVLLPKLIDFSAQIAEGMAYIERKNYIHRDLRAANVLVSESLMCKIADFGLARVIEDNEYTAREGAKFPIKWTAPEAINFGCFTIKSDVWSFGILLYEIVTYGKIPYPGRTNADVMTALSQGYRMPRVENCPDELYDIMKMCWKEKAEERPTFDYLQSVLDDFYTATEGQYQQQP

[3] = molecular target: T3, panel of 468 kinases (Homo sapiens, UniProt P24941); settings: CDK2; 1 μM; read-out: % control
T3 construct: purchased KINOMEscan (ScanMAX) service

[4] = molecular target: T4, panel of 468 kinases (Homo sapiens, UniProt P27448); settings: MARK3; 1 μM; read-out: % control
T4 construct: purchased KINOMEscan (ScanMAX) service
T4 sequence (P27448 whole entry): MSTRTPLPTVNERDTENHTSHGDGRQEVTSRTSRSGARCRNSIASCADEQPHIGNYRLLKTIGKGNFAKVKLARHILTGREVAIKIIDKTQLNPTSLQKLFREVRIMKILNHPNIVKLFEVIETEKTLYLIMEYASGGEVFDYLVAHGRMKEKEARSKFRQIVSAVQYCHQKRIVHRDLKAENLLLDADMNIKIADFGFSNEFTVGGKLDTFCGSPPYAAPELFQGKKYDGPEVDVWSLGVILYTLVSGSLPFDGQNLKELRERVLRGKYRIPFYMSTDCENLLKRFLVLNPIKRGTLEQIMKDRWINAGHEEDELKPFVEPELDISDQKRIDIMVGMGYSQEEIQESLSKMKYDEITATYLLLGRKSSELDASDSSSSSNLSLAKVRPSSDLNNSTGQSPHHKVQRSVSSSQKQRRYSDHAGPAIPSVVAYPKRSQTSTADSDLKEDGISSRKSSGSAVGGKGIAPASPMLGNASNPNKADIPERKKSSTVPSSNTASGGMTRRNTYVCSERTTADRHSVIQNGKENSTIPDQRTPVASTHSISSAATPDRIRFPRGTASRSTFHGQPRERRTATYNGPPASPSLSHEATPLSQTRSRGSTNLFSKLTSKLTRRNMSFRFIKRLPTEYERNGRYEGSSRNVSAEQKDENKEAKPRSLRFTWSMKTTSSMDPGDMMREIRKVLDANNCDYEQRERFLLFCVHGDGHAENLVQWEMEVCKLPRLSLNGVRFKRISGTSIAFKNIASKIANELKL

[5] = molecular target: T5, panel of 468 kinases (Homo sapiens, UniProt P52564); settings: MEK6; 1 μM; read-out: % control
T5 construct: purchased KINOMEscan (ScanMAX) service
T5 sequence (P52564 1-334): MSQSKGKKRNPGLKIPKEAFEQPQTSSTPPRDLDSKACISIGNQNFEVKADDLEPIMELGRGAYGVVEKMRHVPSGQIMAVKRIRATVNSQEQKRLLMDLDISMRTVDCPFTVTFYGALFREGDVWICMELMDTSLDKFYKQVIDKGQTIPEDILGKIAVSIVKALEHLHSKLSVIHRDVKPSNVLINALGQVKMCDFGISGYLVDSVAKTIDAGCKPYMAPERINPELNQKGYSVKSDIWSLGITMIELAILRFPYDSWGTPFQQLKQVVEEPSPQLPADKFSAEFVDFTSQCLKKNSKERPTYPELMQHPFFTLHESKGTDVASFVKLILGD

[6] = molecular target: T6, panel of 468 kinases (Homo sapiens, UniProt Q02750); settings: MEK1; 1 μM; read-out: % control
T6 construct: purchased KINOMEscan (ScanMAX) service
T6 sequence (Q02750 whole entry): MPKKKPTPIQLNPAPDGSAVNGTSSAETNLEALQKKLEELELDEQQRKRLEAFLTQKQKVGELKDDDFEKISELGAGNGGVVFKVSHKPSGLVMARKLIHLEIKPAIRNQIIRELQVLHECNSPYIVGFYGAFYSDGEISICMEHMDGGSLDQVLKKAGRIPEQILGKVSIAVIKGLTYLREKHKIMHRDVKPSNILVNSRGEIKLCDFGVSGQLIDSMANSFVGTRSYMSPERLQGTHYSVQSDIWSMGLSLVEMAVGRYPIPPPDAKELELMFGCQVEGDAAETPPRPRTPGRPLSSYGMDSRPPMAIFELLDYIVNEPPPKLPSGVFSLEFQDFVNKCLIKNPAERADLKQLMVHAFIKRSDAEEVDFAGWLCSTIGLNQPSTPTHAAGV

[7] = molecular target: T7, panel of 468 kinases (Homo sapiens, UniProt Q06187); settings: BTK; 1 μM; read-out: % control
T7 construct: purchased KINOMEscan (ScanMAX) service
T7 sequence (Q06187 whole entry): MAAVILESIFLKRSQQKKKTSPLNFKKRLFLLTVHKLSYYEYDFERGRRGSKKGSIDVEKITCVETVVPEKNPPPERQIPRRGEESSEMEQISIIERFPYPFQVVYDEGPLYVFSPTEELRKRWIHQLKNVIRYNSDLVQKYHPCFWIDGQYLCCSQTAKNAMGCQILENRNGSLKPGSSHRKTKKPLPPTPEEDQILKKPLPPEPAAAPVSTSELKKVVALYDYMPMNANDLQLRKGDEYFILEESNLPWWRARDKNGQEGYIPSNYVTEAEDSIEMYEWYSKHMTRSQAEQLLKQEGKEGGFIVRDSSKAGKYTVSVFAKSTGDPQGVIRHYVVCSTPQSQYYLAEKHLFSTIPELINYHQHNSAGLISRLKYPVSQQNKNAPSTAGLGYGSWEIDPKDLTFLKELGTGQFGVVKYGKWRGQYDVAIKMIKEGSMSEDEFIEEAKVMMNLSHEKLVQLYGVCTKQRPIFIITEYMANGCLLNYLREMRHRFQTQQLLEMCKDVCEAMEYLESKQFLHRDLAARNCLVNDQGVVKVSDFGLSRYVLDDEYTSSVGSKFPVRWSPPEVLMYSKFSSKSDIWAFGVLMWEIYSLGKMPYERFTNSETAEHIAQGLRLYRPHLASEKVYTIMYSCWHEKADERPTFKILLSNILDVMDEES

[8] = molecular target: T8, panel of 468 kinases (Homo sapiens, UniProt Q14012); settings: CAMK1; 1 μM; read-out: % control
T8 construct: purchased KINOMEscan (ScanMAX) service
T8 sequence (Q14012 whole entry): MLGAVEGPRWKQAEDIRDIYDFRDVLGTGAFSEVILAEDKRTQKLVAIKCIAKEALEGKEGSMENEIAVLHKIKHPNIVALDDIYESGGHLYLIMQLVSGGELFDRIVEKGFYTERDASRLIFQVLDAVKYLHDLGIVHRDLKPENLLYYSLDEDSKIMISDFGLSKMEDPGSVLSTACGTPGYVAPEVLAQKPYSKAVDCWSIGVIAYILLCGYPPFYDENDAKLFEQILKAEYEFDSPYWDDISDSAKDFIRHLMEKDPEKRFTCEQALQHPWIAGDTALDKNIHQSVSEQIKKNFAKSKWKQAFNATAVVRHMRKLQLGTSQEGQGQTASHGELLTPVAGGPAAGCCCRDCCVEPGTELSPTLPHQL

[9] = molecular target: T9, panel of 468 kinases (Homo sapiens, UniProt Q15349); settings: 1 μM, read-out: % control
T9 construct: purchased KINOMEscan (ScanMAX) service
T9 sequence (Q15349 whole entry): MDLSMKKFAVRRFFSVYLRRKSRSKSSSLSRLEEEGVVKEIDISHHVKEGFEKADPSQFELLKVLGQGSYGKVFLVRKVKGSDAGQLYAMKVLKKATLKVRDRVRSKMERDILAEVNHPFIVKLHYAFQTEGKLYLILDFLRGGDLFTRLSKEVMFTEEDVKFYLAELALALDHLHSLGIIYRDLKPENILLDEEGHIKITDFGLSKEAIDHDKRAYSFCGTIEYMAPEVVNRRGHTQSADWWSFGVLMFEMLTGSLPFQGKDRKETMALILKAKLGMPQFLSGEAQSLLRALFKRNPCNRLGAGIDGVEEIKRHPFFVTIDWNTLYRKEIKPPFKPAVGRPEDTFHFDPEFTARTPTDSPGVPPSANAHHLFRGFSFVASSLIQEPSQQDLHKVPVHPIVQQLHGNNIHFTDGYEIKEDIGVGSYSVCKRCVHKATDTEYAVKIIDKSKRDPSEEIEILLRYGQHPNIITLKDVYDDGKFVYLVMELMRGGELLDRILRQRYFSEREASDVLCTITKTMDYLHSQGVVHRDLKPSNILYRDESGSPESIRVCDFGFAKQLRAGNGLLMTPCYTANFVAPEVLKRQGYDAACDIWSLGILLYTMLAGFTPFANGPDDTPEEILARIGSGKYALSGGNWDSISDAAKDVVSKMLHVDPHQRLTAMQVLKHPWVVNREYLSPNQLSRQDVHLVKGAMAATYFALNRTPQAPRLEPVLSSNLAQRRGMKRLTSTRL

[10] = molecular target: T10, panel of 468 kinases (Homo sapiens, UniProt Q16513); settings: PKN2; 1 μM; read-out: % control
T10 construct: purchased KINOMEscan (ScanMAX) service
T10 sequence (Q16513 whole entry): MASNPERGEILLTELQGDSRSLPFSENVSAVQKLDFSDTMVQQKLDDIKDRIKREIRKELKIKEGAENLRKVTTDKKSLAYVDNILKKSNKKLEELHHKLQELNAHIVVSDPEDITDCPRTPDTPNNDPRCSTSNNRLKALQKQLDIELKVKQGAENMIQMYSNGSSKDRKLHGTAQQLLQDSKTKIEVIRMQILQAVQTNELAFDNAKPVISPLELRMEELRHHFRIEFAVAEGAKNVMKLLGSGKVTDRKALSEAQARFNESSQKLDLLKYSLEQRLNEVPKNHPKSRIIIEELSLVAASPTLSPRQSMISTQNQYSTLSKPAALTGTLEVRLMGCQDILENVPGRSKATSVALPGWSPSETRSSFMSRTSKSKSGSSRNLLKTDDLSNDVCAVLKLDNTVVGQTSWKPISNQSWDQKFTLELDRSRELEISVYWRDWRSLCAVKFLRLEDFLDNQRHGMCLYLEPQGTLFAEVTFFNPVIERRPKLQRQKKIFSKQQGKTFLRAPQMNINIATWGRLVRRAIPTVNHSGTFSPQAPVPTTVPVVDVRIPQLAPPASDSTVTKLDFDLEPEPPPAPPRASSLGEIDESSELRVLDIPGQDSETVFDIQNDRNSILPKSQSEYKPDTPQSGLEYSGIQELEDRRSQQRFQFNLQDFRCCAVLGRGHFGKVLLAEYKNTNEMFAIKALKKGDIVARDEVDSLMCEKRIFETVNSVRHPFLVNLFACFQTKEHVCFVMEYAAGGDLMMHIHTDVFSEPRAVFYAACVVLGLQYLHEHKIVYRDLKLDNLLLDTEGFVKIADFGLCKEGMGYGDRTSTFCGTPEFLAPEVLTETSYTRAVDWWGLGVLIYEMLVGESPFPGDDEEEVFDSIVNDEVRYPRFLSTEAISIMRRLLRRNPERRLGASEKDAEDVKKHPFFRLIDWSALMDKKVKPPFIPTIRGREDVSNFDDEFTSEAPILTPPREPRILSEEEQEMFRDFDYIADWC

[11] = molecular target: T11, panel of 468 kinases (Homo sapiens, UniProt Q6PHR2); settings: ULK3; 1 μM; read-out: % control
T11 construct: purchased KINOMEscan (ScanMAX) service
T11 sequence (Q6PHR2 1-472): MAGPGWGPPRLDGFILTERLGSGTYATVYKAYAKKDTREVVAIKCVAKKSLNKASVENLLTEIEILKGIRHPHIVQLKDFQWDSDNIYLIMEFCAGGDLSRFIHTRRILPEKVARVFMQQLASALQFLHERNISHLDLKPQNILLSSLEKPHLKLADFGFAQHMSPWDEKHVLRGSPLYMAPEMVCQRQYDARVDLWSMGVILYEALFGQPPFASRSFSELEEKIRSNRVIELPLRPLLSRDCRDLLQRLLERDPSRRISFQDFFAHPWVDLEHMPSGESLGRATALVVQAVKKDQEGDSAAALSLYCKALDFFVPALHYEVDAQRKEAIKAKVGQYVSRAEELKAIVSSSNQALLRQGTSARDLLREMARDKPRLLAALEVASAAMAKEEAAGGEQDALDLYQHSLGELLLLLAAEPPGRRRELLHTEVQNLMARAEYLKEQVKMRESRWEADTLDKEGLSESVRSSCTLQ

[12] = molecular target: T12, panel of 468 kinases (Homo sapiens, UniProt Q8IY84); settings: NIM1; 1 μM; read-out: % control
T12 construct: purchased KINOMEscan (ScanMAX) service
T12 sequence (Q8IY84 whole entry): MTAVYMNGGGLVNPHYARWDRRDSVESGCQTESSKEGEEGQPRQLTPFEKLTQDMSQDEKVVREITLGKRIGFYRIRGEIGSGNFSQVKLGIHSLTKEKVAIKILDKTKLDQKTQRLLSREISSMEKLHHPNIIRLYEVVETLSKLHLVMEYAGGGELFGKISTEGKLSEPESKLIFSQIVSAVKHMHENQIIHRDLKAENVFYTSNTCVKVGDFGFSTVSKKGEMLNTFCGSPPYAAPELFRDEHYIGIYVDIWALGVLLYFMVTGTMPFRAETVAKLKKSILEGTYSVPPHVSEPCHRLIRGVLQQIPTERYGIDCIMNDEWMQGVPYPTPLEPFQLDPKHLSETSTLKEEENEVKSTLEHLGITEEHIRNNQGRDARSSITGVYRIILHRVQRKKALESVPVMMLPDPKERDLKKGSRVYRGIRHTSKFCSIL

[13] = molecular target: T13, panel of 468 kinases (Homo sapiens, UniProt Q8N752); settings: CSNK1A1L; 1 μM; read-out: % control
T13 construct: purchased KINOMEscan (ScanMAX) service
T13 sequence (Q8N752 1-337): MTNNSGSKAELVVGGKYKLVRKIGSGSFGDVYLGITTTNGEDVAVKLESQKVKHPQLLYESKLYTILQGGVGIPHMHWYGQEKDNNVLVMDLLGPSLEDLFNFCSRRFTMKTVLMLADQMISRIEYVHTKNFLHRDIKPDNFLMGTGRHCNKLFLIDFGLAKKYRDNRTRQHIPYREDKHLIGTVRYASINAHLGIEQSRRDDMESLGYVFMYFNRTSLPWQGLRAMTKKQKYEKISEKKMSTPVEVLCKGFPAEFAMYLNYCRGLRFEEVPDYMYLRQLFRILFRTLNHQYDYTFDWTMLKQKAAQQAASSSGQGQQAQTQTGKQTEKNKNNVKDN

[14] = molecular target: T14, panel of 468 kinases (Homo sapiens, UniProt Q8TBX8); settings: PIP5K2C; 1 μM; read-out: % control
T14 construct: purchased KINOMEscan (ScanMAX) service
T14 sequence (Q8TBX8 1-421): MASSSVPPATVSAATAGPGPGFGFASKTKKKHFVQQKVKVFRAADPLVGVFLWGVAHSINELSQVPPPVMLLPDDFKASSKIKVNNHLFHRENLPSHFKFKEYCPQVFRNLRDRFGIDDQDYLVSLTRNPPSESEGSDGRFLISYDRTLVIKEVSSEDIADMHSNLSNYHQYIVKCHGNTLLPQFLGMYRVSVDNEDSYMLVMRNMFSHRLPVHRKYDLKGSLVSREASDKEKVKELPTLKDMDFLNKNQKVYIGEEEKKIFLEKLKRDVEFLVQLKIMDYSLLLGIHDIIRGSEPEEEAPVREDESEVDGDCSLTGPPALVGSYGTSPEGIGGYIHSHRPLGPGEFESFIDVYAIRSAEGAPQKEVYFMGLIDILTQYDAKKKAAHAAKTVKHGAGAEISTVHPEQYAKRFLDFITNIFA

Row | SMILES | remaining binding at 1 µM [1] | remaining binding at 1 µM [2] | remaining binding at 1 µM [3] | remaining binding at 1 µM [4] | remaining binding at 1 µM [5] | remaining binding at 1 µM [6] | remaining binding at 1 µM [7] | remaining binding at 1 µM [8] | remaining binding at 1 µM ([9]; RSK3(Kin.Dom.1-N-terminal)) | remaining binding at 1 µM ([9]; RSK3(Kin.Dom.2-C-terminal)) | remaining binding at 1 µM [10] | remaining binding at 1 µM [11] | remaining binding at 1 µM [12] | remaining binding at 1 µM [13] | remaining binding at 1 µM [14]
1 | CNc1nc(Nc2ccc(S(=O)(=O)N3CCC(N4CCOCC4)CC3)cc2OC)nc2[nH]cc(Cl)c12 [Compound 12, 5-chloro-N2-(2-methoxy-4-((4-morpholinopiperidin-1-yl)sulfonyl)phenyl)-N4-methyl-7H-pyrrolo[2,3-d]pyrimidine-2,4-diamine] | 51% | 100% | 100% | 100% | 96% | 99% | 79% | 100% | 100% | 70% | 99% | 65% | 82% | 56% | 28%
2 | CNc1nc(Nc2ccc(P3(=O)CCN(C4CCOCC4)CC3)cc2OC)nc2[nH]cc(Cl)c12 [Compound 77, 4-(4-((5-chloro-4-(methylamino)-7H-pyrrolo[2,3-d]pyrimidin-2-yl)amino)-3-methoxyphenyl)-1-(tetrahydro-2H-pyran-4-yl)-1,4-azaphosphinane 4-oxide] | 53% | 100% | 100% | 100% | 56% | 96% | 100% | 67% | 100% | 20% | 100% | 65% | 88% | 36% | 39%
3 | CNc1nc(Nc2ccc(C(=O)N3CCC(N4CCOCC4)CC3)c3c2OCO3)nc2[nH]cc(Cl)c12 [Compound 75, (7-((5-chloro-4-(methylamino)-7H-pyrrolo[2,3-d]pyrimidin-2-yl)amino)benzo[d][1,3]dioxol-4-yl)(4-morpholinopiperidin-1-yl)methanone] | 53% | 100% | 100% | 100% | 10% | 98% | 98% | 75% | 100% | 57% | 91% | 7.6% | 73% | 70% | 0%
